Patent publication US4959368A, “Therapeutic agent for neurological diseases” (Mitsui Petrochemical Industries Ltd., priority 1986, dated 1990)

Experiments:
[1] = tested on: mouse neuroblastoma cell line neuro-2a; experiment: Activity on cell line neuro-2a (simple method); assay type: cell-based; settings: Table 2 neuro-2a Run No. 1, control 7.9
Method: The biological activities in vitro of the compounds of formula (I) on cells of the nervous system were tested. The cells tested were human neuroblastoma cell line GOTO [see Sekiguchi, M., Oota, T., Sakakibara, K., Inui, N. & Fujii, G., Japan. J. Exp. Med., 49, 67-83 (1979)], and neuroblastoma cell line NB-1 [see Miyake, S., Shimo, Y., Kitamura, T., Nojyo, Y., Nakamura, T., Imkashuku, S. and Abe, T., The Autonomic Nervous System, 10, 115-120 (1973)], and mouse neuroblastoma cell line neuro-2a (Dainippon Pharmaceutical Co., Ltd.) which have been established as the cells of the nervous system. The above neuve cells were grown in an incubator at 37° C. in the presence of 5% carbon dioxide gas exponentially, and then cultivated for a certain period of time together with the compounds of formula (I). […]
(§1) As a simple method of evaluation, the number of cells have neurites with a length equal to, or larger than, the long diameter of the cell was divided by the total number of cells.

[2] = tested on: human neuroblastoma cell line GOTO; experiment: Activity on cell line GOTO (simple method); assay type: cell-based; settings: Table 2 GOTO Run No. 2; 10 μg/ml; control 8.4
Method: The biological activities in vitro of the compounds of formula (I) on cells of the nervous system were tested. The cells tested were human neuroblastoma cell line GOTO [see Sekiguchi, M., Oota, T., Sakakibara, K., Inui, N. & Fujii, G., Japan. J. Exp. Med., 49, 67-83 (1979)], and neuroblastoma cell line NB-1 [see Miyake, S., Shimo, Y., Kitamura, T., Nojyo, Y., Nakamura, T., Imkashuku, S. and Abe, T., The Autonomic Nervous System, 10, 115-120 (1973)], and mouse neuroblastoma cell line neuro-2a (Dainippon Pharmaceutical Co., Ltd.) which have been established as the cells of the nervous system. The above neuve cells were grown in an incubator at 37° C. in the presence of 5% carbon dioxide gas exponentially, and then cultivated for a certain period of time together with the compounds of formula (I).
A culture medium [composed of 45% of RPMI 1640 medium, 45% modified Eagle's medium (MEM) and 10% of fetal calf serum (FCS) and containing penicillin G sodium (100 units/ml) and streptomycin sulfate (100 microgram/ml)] containing neurobalstoma cell line GOTO in the logarithmic growth period was poured in an amount of 2 ml each into polystyrene dishes (35 mm; made by Corning Co.) so that the cell concentration was 2 to 6×10^4 cells per dish, and the cells were cultured for 1 to 2 days in a carbon dioxide gas incubator containing 5% of carbon dioxide gas in air at 37° C. Then, the culture fluid was removed, and 2 ml of a fresh serum-free culture fluid (consisting of 50% of RPMI medium and 50% of MEM medium and containing penicillin G sodium and streptomycin sulfate in the same amounts as above) was added. At the same time, a presterilized PBS solution (phosphate buffered saline) of each of the test compounds in various concentrations was added to each of the dishes. After culturing for 24 hours, the number of living cells was counted. Furthermore, the culture was photographed, and from the photos, the number and length of neurites per cell were measured. The numer of living cells was counted for 3 to 6 dishes by resistance to staining with erythrosine dye. The number and length of the neurites were measured with regard to 6 photos (more than 200 cells per photo).
as §1

rats = experiment: Acute toxicity, rat; assay type: in vivo; settings: 24 hours
Method: (§2) The acute toxicity of the compounds of the invention was examined by the following method.
(§3) Male ddy-strain 5-week old mice and male Wistar-strain 8 week old rats, five per group, were used as experimental animals. Each of the compounds was dissolved in saline and administered perorally, and the toxicity of the compound was assessed 24 hours after the administration.

Acute toxicity, rat = assay type: in vivo; settings: in vivo, po, Table 6, p.o., read-out: Presumed LD50
Method: as §2, §3

mice = experiment: Acute toxicity, mouse; assay type: in vivo; settings: 24 hours
Method: as §2, §3

Acute toxicity, mouse = assay type: in vivo; settings: in vivo, po, Table 6, p.o., read-out: Presumed LD50
Method: as §2, §3

[3] = tested on: human neuroblastoma cell line GOTO; experiment: Activity on neuroblastoma cell line GOTO (cell number, number and length of neurites); assay type: cell-based; settings: for Number of cells: control 3.17
Procedure, shortened: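 GOTO cells were cultured 1–2 days at 37 °C, 5% CO2, then switched to serum-free RPMI/MEM (1:1) with compounds in PBS at various concentrations for 24 h. Living cells were counted by erythrosine exclusion (3–6 dishes); neurite number and length per cell were measured from photographs.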

[4] = Table 1 Run No. 3, 1 μg/ml, control 1.94 ± 0.69, all *P <0.01
[5] = Table 1 Run No. 3, 1 μg/ml, control 45.13 ± 22.71, all *P <0.01

| SMILES | Average of the proportions ([1]; 1 μg/ml) | Average of the proportions ([1]; 10 μg/ml) | Average of the proportions [2] | Number of dead animals/number of test animals (rats; Table 6, 300 mg/kg p.o.) | Number of dead animals/number of test animals (rats; Table 6, 500 mg/kg p.o.) | Number of dead animals/number of test animals (rats; Table 6, 1000 mg/kg p.o.) | LD50 at 24 h (Acute toxicity, rat) | Number of dead animals/number of test animals (mice; Table 6, 300 mg/kg p.o.) | Number of dead animals/number of test animals (mice; Table 6, 500 mg/kg p.o.) | Number of dead animals/number of test animals (mice; Table 6, 1000 mg/kg p.o.) | LD50 at 24 h (Acute toxicity, mouse) | Number of neurites/cell (mean ± S.D.) [3, 4] | Number of cells ([3]; Table 1 Run No. 3, 1 μg/ml) | Length of neurites (mean ± S.D.) [3, 5] | other results |
| --- | --- | --- | --- | --- | --- | --- | --- | --- | --- | --- | --- | --- | --- | --- | --- |
| CCn1ccc2nc(N3CCNCC3)ncc2c1=O [Compound 710] | 15.97% | 13.70% | 15.02% | 1/5 | 2/5 | 5/5 | 550 to 1000 mg/kg | 0/5 | 3/5 | 5/5 | 300 to 550 mg/kg | 2.17 ± 0.79 neurites/cell | 3.92 × 10^4 /dish | 60.93 ± 23.66 μm/cell | Number of neurites/cell (mean ± S.D.) ([3]; Table 1 Run No. 1, 10 μg/ml, control 2.09 ± 0.61): 2.12 ± 0.51 neurites/cell; Number of cells (mean ± S.E.) ([3]; Table 1 Run No. 1, 10 μg/ml, control 14.34 ± 0.72): 19.18 ± 0.67 × 10^4 /dish; Length of neurites (mean ± S.D.) ([3]; Table 1 Run No. 1, 10 μg/ml, control 70.10 ± 43.03): 86.10 ± 50.70 μm/cell; Number of neurites/cell (mean ± S.D.) ([3]; Table 1 Run No. 1, 100 μg/ml, control 2.09 ± 0.61): 1.71 ± 0.59 neurites/cell; Number of cells (mean ± S.E.) ([3]; Table 1 Run No. 1, 100 μg/ml, control 14.34 ± 0.72): 11.92 ± 0.66 × 10^4 /dish; Length of neurites (mean ± S.D.) ([3]; Table 1 Run No. 1, 100 μg/ml, control 70.10 ± 43.03): 47.34 ± 35.11 μm/cell; Number of neurites/cell (mean ± S.D.) ([3]; Table 1 Run No. 2, 1 μg/ml, control 2.06 ± 0.60): 2.14 ± 0.63 neurites/cell; Number of cells (mean ± S.E.) ([3]; Table 1 Run No. 2, 1 μg/ml, control 12.30 ± 1.48): 17.44 ± 1.50 × 10^4 /dish; Length of neurites (mean ± S.D.) ([3]; Table 1 Run No. 2, 1 μg/ml, control 55.00 ± 37.26): 73.74 ± 43.49 μm/cell; Number of neurites/cell (mean ± S.D.) ([3]; Table 1 Run No. 2, 10 μg/ml, control 2.06 ± 0.60): 2.09 ± 0.62 neurites/cell; Number of cells (mean ± S.E.) ([3]; Table 1 Run No. 2, 10 μg/ml, control 12.30 ± 1.48): 15.15 ± 2.26 × 10^4 /dish; Length of neurites (mean ± S.D.) ([3]; Table 1 Run No. 2, 10 μg/ml, control 55.00 ± 37.26): 62.74 ± 35.64 μm/cell; Number of cells ([3]; Table 1 Run No. 3, 0.0 μg/ml (so in the source)): 3.66 × 10^4 /dish |
| Cn1ccc2nc(N3CCNCC3)ncc2c1=O [Compound 706] | 17.21% | 15.40% | 16.39% | 0/5 | 1/5 | 3/5 | 550 to 1000 mg/kg | 0/5 | 2/5 | 4/5 | 550 to 1000 mg/kg | 2.26 ± 0.82 neurites/cell | 4.12 × 10^4 /dish | 63.24 ± 28.17 μm/cell | Number of neurites/cell (mean ± S.D.) ([3]; Table 1 Run No. 3, 0.1 μg/ml, control 1.94 ± 0.69, *P <0.01): 2.30 ± 0.75 neurites/cell; Number of cells ([3]; Table 1 Run No. 3, 0.1 μg/ml): 3.81 × 10^4 /dish; Length of neurites (mean ± S.D.) ([3]; Table 1 Run No. 3, 0.1 μg/ml, control 45.13 ± 22.71, *P <0.01): 72.11 ± 26.58 μm/cell |
